We go through 68 sequences from the supplement of paper PMC11208160.
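Further: IS621 bridge recombinase in Escherichia coli cells against a fixed T5 target plasmid.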

The data set can be described thus: recombinant UMI read abundance after kanamycin selection (control-corrected) (log10(CPM+1)); higher = more efficient recombination; extreme values may be limits of the assay; sequences stand for … in AGTGCAGAGAAAATCGGCCAGTTTTCTCTGCCTGCAGTCCGCATGCCGTGGGACCCCTTGGGTTCTAACCTGTTGCCTAGATTTATGCAGCGGACTGCCTTTCTCCCAAAGTGATAAACCGG…AGGTTGGTTTCACT; site = the 11-nt donor. The essentials:
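In Escherichia coli, a pool of donor and donor-binding-loop pairs, each with a 12-nt UMI, was tested for the IS621 bridge recombinase. Plating was on IPTG (0.07 mM) plus kanamycin, or without selection, in two replicates. Recombinant UMIs were amplified by PCR across the donor–target junction and sequenced, and counts were reported as log10(CPM+1) after averaging and control-derived scaling.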
“TGGTTCCCATGGACCGGTTTTCCCGGTAATCCGTATTTGTG (site CGGTTCCCTCA)”: the “recombinant UMI read abundance (log10)” value was 0.0117.
Turning to “TGGTTCCCATGGACCGGTTTTCCCGGTAATCCGTATTTGTG (site GGGTTCCCTCA)”, the “recombinant UMI read abundance (log10)” value is 0.0263.
On to “TGGTTCCCATGGACCGGTTTTCCCGGTAATCCGTATTTGTG (site TGGTTCCCTCA)”, for which the “recombinant UMI read abundance (log10)” value turned out to be 0.0117.
“TGGTTGACATGGACCGGTTTTCCCGGTAATCCGTATTTGTA (site TGGTTGACTTA)”: the “recombinant UMI read abundance (log10)” value was 1.04.
With “TGGTTTCCATGGACCGGTTTTCCCGGTAATCCGTATTTGGG (site TGGTTTCCTCC)” the figure was 0.327; with “TGTACACCATGGACCGGTTTTCCCGGTAATCCGTATTTGAC (site AGTACACCTGT)”, 0; with “TGTACACCATGGACCGGTTTTCCCGGTAATCCGTATTTGAC (site CGTACACCTGT)”, 0.
For “TGTACACCATGGACCGGTTTTCCCGGTAATCCGTATTTGAC (site GGTACACCTGT)”, the “recombinant UMI read abundance (log10)” value came out at 0.
As to “TGTACACCATGGACCGGTTTTCCCGGTAATCCGTATTTGAC (site TATACACCTGT)”, the “recombinant UMI read abundance (log10)” value was found to be 0.
Regarding “TGTACACCATGGACCGGTTTTCCCGGTAATCCGTATTTGAC (site TCTACACCTGT)”, the “recombinant UMI read abundance (log10)” value came out at 0.
“TGTACACCATGGACCGGTTTTCCCGGTAATCCGTATTTGAC (site TGAACACCTGT)”: the “recombinant UMI read abundance (log10)” value came out at 0.
With “TGTACACCATGGACCGGTTTTCCCGGTAATCCGTATTTGAC (site TGCACACCTGT)”, the “recombinant UMI read abundance (log10)” value was determined as 0.
As to “TGTACACCATGGACCGGTTTTCCCGGTAATCCGTATTTGAC (site TGGACACCTGT)”, the “recombinant UMI read abundance (log10)” value came out at 0.00576.
With “TGTACACCATGGACCGGTTTTCCCGGTAATCCGTATTTGAC (site TGTAAACCTGT)” the figure was 0.
Then “TGTACACCATGGACCGGTTTTCCCGGTAATCCGTATTTGAC (site TGTACAACTGT)”, with 0; and “TGTACACCATGGACCGGTTTTCCCGGTAATCCGTATTTGAC (site TGTACACCTAT)”, with 0.0116.
With “TGTACACCATGGACCGGTTTTCCCGGTAATCCGTATTTGAC (site TGTACACCTCT)” the figure was 0.0222; with “TGTACACCATGGACCGGTTTTCCCGGTAATCCGTATTTGAC (site TGTACACCTGA)”, 0.
With “TGTACACCATGGACCGGTTTTCCCGGTAATCCGTATTTGAC (site TGTACACCTGC)”, the “recombinant UMI read abundance (log10)” value was 0.
Regarding “TGTACACCATGGACCGGTTTTCCCGGTAATCCGTATTTGAC (site TGTACACCTGG)”, the “recombinant UMI read abundance (log10)” value came out at 0.
In the case of “TGTACACCATGGACCGGTTTTCCCGGTAATCCGTATTTGAC (site TGTACACCTGT)”, the “recombinant UMI read abundance (log10)” value came to 0.
With “TGTACACCATGGACCGGTTTTCCCGGTAATCCGTATTTGAC (site TGTACACCTTT)” the figure was 0.0141; with “TGTACACCATGGACCGGTTTTCCCGGTAATCCGTATTTGAC (site TGTACAGCTGT)”, 0.
On to “TGTACACCATGGACCGGTTTTCCCGGTAATCCGTATTTGAC (site TGTACATCTGT)”, for which the “recombinant UMI read abundance (log10)” value is 0.
For “TGTACACCATGGACCGGTTTTCCCGGTAATCCGTATTTGAC (site TGTACCCCTGT)”, the “recombinant UMI read abundance (log10)” value came out at 0.
As to “TGTACACCATGGACCGGTTTTCCCGGTAATCCGTATTTGAC (site TGTACGCCTGT)”, the “recombinant UMI read abundance (log10)” value came out at 0.
On to “TGTACACCATGGACCGGTTTTCCCGGTAATCCGTATTTGAC (site TGTACTCCTGT)”, for which the “recombinant UMI read abundance (log10)” value came to 0.
With “TGTACACCATGGACCGGTTTTCCCGGTAATCCGTATTTGAC (site TGTAGACCTGT)” the figure was 0.
Consider “TGTACACCATGGACCGGTTTTCCCGGTAATCCGTATTTGAC (site TGTATACCTGT)”, for which the “recombinant UMI read abundance (log10)” value is 0.
Regarding “TGTACACCATGGACCGGTTTTCCCGGTAATCCGTATTTGAC (site TGTCCACCTGT)”, the “recombinant UMI read abundance (log10)” value worked out at 0.
As to “TGTACACCATGGACCGGTTTTCCCGGTAATCCGTATTTGAC (site TGTGCACCTGT)”, the “recombinant UMI read abundance (log10)” value came out at 0.
With “TGTACACCATGGACCGGTTTTCCCGGTAATCCGTATTTGAC (site TGTTCACCTGT)” the figure was 0; with “TGTACACCATGGACCGGTTTTCCCGGTAATCCGTATTTGAC (site TTTACACCTGT)”, 0.
With “TGTACACCATGGACCGGTTTTCCCGGTAATCCGTATTTGAG (site TGTACACCTAT)” the figure was 0.0116; with “TGTACACCATGGACCGGTTTTCCCGGTAATCCGTATTTGAG (site TGTACACCTCT)”, 0.00855; with “TGTACACCATGGACCGGTTTTCCCGGTAATCCGTATTTGAG (site TGTACACCTGT)”, 0.
Take “TGTACACCATGGACCGGTTTTCCCGGTAATCCGTATTTGAG (site TGTACACCTTT)”: the “recombinant UMI read abundance (log10)” value was 0.0116.
For the sequence “TGTACACCATGGACCGGTTTTCCCGGTAATCCGTATTTGGC (site TGTACACCTGA)”, the “recombinant UMI read abundance (log10)” value was found to be 0.
For “TGTACACCATGGACCGGTTTTCCCGGTAATCCGTATTTGGC (site TGTACACCTGC)”, the “recombinant UMI read abundance (log10)” value was found to be 0.00484.
Take “TGTACACCATGGACCGGTTTTCCCGGTAATCCGTATTTGGC (site TGTACACCTGG)”: the “recombinant UMI read abundance (log10)” value stood at 0.
As to “TGTACACCATGGACCGGTTTTCCCGGTAATCCGTATTTGGC (site TGTACACCTGT)”, the “recombinant UMI read abundance (log10)” value was 0.
With “TGTACGCCATGGACCGGTTTTCCCGGTAATCCGTATTTGAC (site TGTACACCTGT)” the figure was 0.
Regarding “TGTACGCCATGGACCGGTTTTCCCGGTAATCCGTATTTGAC (site TGTACCCCTGT)”, the “recombinant UMI read abundance (log10)” value was 0.
In the case of “TGTACGCCATGGACCGGTTTTCCCGGTAATCCGTATTTGAC (site TGTACGCCTGT)”, the “recombinant UMI read abundance (log10)” value turned out to be 0.
“TGTACGCCATGGACCGGTTTTCCCGGTAATCCGTATTTGAC (site TGTACTCCTGT)”: the “recombinant UMI read abundance (log10)” value amounted to 0.
Regarding “TGTACGCCATGGACCGGTTTTCCCGGTAATCCGTATTTGTA (site TGTACGCCTTA)”, the “recombinant UMI read abundance (log10)” value is 0.00598.
On to “TGTACTGCATGGACCGGTTTTCCCGGTAATCCGTATTTGCC (site TGTACTGCTGG)”, for which the “recombinant UMI read abundance (log10)” value was found to be 0.865.
Consider “TGTACTTCATGGACCGGTTTTCCCGGTAATCCGTATTTGGT (site TGTACTTCTAC)”, for which the “recombinant UMI read abundance (log10)” value turned out to be 1.38.
Turning to “TGTAGTGCATGGACCGGTTTTCCCGGTAATCCGTATTTGCC (site TGTAGTGCTGG)”, the “recombinant UMI read abundance (log10)” value came out at 1.56.
With “TGTAGTGCATGGACCGGTTTTCCCGGTAATCCGTATTTGCT (site TGTAGTGCTAG)” the figure was 1.16; with “TGTATCACATGGACCGGTTTTCCCGGTAATCCGTATTTGAA (site TGTATCACTTT)”, 0.00408.
With “TGTATCTCATGGACCGGTTTTCCCGGTAATCCGTATTTGGG (site TGTATCTCTCC)” the figure was 0.0516; with “TGTATGGCATGGACCGGTTTTCCCGGTAATCCGTATTTGAC (site TGTATGGCTGT)”, 1.25; with “TGTCACCCATGGACCGGTTTTCCCGGTAATCCGTATTTGGC (site TGTCACCCTGC)”, 0.
For the sequence “TGTCCAACATGGACCGGTTTTCCCGGTAATCCGTATTTGTA (site AGTCCAACTTA)”, the “recombinant UMI read abundance (log10)” value amounted to 0.0568.
Regarding “TGTCCAACATGGACCGGTTTTCCCGGTAATCCGTATTTGTA (site CGTCCAACTTA)”, the “recombinant UMI read abundance (log10)” value came to 0.338.
On to “TGTCCAACATGGACCGGTTTTCCCGGTAATCCGTATTTGTA (site GGTCCAACTTA)”, for which the “recombinant UMI read abundance (log10)” value came to 0.0289.
With “TGTCCAACATGGACCGGTTTTCCCGGTAATCCGTATTTGTA (site TGTCCAACTTA)” the figure was 0.208; with “TGTCCGGCATGGACCGGTTTTCCCGGTAATCCGTATTTGGC (site TGACCGGCTGC)”, 0; with “TGTCCGGCATGGACCGGTTTTCCCGGTAATCCGTATTTGGC (site TGCCCGGCTGC)”, 0.
With “TGTCCGGCATGGACCGGTTTTCCCGGTAATCCGTATTTGGC (site TGGCCGGCTGC)” the figure was 0; with “TGTCCGGCATGGACCGGTTTTCCCGGTAATCCGTATTTGGC (site TGTCCGGCTGC)”, 0.541; with “TGTCGAGCATGGACCGGTTTTCCCGGTAATCCGTATTTGTA (site TGTCGAGCTTA)”, 0.92.
Regarding “TGTCTACCATGGACCGGTTTTCCCGGTAATCCGTATTTGCG (site TGTCTACCTCG)”, the “recombinant UMI read abundance (log10)” value turned out to be 0.0129.
“TGTCTTGCATGGACCGGTTTTCCCGGTAATCCGTATTTGGG (site TGTCTTGCTCC)”: the “recombinant UMI read abundance (log10)” value amounted to 0.016.
As for “TGTGAATCATGGACCGGTTTTCCCGGTAATCCGTATTTGTC (site TGTGAATCTGA)”, the “recombinant UMI read abundance (log10)” value is 0.782.
As to “TGTGCCACATGGACCGGTTTTCCCGGTAATCCGTATTTGTT (site TGTGCCACTAA)”, the “recombinant UMI read abundance (log10)” value was 0.0457.
Consider “TGTGCGGCATGGACCGGTTTTCCCGGTAATCCGTATTTGCT (site TATGCGGCTAG)”, for which the “recombinant UMI read abundance (log10)” value was 0.00771.
